What was measured:
receptor EGFP-NK2R [1] = target: T1, receptor EGFP-NK2R (Homo sapiens, UniProt P21452); experiment: Calcium response caused by NKA 4-10 TR7 in HEK 293 cells expressing EGFP-NK2R (indo-1); assay type: cell-based; conditions: 805 20 μM; NKA 4-10 TR7 106, 50.3, 26.5 and 10.6 nM
T1 sequence (P21452 1-398): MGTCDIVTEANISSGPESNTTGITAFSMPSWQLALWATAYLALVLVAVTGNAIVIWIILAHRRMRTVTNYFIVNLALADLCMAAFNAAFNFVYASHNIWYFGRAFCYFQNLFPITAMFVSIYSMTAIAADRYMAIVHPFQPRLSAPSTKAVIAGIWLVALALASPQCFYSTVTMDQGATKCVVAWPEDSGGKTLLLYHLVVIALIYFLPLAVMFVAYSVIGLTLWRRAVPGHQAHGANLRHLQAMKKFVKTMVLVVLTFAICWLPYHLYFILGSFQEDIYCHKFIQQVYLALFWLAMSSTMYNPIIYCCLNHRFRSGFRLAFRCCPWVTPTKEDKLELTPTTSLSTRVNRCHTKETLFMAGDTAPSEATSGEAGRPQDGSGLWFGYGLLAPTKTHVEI
Description: The cells are put into suspension at a rate of 500,000 cells/ml in Hepes buffer and arranged in a spectrofluorimeter cuvette. The excitation wavelength is fixed at 355 nm and the emission is recorded at […].

[2] = test system: cells not expressing the EGFP-NK2R receptor; experiment: Calcium response on cells not expressing the receptor; assay type: cell-based; design: key: ns: not significant; ?: uniterpretable
receptor EGFP-NK2R [3] = target: T2, receptor EGFP-NK2R (UniProt P16610); experiment: Dissociation kinetics of NKA-Bo bound to EGFP-NK2R by fluorescence energy transfer; assay type: binding; design: % al (max): maximum value observed for the increase in amplitude of the rapid dissociation rate; ns = n; other: 20 nM of NK; % al (at 10 μM); other: compou; fused on or other part: EGFP fused to the receptor as FRET donor; conditions: for λ1/λ2 amplitudes (rapid/slow) of dissociation of NKA-Bo: 30/70 without 805
T2 sequence (P16610 1-390): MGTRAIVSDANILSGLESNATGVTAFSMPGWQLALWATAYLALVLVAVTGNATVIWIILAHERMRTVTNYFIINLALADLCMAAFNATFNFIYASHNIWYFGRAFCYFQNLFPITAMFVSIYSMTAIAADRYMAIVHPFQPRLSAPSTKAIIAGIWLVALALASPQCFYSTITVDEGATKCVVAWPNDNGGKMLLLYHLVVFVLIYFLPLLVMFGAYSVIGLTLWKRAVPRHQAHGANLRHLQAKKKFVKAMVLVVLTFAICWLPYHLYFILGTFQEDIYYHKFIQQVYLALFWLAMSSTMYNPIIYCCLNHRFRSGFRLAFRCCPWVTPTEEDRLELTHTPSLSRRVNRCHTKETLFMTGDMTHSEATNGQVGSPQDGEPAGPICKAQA
Description: Dissociation (FIG. 4B): HEK 293 cells expressing the receptor EGFP-NK2R are put into suspension at a concentration of 1,000,000 cells/ml in Hepes physiological buffer (in mM: 137.5 NaCl; 1.25 MgCl2; 1.25 CaCl2; 6 KCl; 5.6 glucose; 10 Hepes; 0.4 NaH2PO4; 1% BSA (w/v); pH 7.4) and arranged in a 1 ml cuvette equipped with a magnetic stirrer on the cuvette holder of a SPEX fluorolog 3 spectrofluorimeter.
The amplitude of each relaxation is then given by the adjustment of the experimental traces.

Question: Which “effect on the calcium response caused by NKA 4-10 TR7” value (receptor EGFP-NK2R [1]) does the source give for `N#CCN(Cc1ccccc1)Cc1ccc2ccccc2c1` [compound 805, [benzyl(2-naphthylmethyl)amino]acetonitrile] here?
Answer: increases the amplitude of the response

Question: And the “Ca Rep.: ability to evoke a calcium response on cells not expressing the EGFP-NK2R receptor” value ([2]; Table 1)?
Answer: ns

Question: What about the “Ca Rep.” value ([2]; Table 2) of the same compound?
Answer: ns

Question: And the “λ1/λ2 amplitudes (rapid/slow) of dissociation of NKA-Bo” value (receptor EGFP-NK2R [3]; 1 μM 805)?
Answer: 35/65

Question: And the “λ1/λ2 amplitudes (rapid/slow) of dissociation of NKA-Bo” value (receptor EGFP-NK2R [3]; 50 μM 805)?
Answer: 80/20

Question: What about the “% al (max): maximum value observed for the increase in amplitude of the rapid dissociation rate” value (receptor EGFP-NK2R [3]; Table 1, ns = not significant) of the same compound?
Answer: 80%

Question: And the “% al (at 10 μM)” value (receptor EGFP-NK2R [3]; compound 10 μM, T = 22 ± 1 is amplitude of rapid dissociation in the absence of effector)?
Answer: 29 (10 μM) %

Question: What about the EC50 (receptor EGFP-NK2R [3]; read-out: EC50 (μM): concentration of compound causing a 50% increase (relative to the maximum value) in the percentage of the amplitude of the rapid dissociation rate, Table 1, dissociation of NKA-Bo from EGFP-NK2R, ns = not significant) of the same compound?
Answer: 3 to 8 µM
